# Source: paper PMC3115046, “Analyzing Airway Inflammation with Chemical Biology: Dissection of Acidic Mammalian Chitinase Function with a Selective Drug-like Inhibitor” (Chemistry & Biology, 2011)
# Tests used:
# murine CHIT1 [mCHIT1] = conditions: read-out: IC50 murine CHIT1; ref Zheng et al., 2005; Boot et al., 2001; cited from earlier work
# allergen-challenged mice = conditions: ref Matsumoto et al., 2009, cited from earlier work
# [1] = system: Aspergillus fumigatus chitinase B1 (AfChiB1); parameters: method as in Schuttelkopf et al., 2011; conditions: ref Schuttelkopf et al., 2011; cited from earlier work
# [2] = target: human chitotriosidase (hCHIT1) (Homo sapiens, UniProt Q13231); assay: Chitinase activity assay with fluorescent 4-MU substrate, hCHIT1; format: biochemical; conditions: read-out: IC50 against hCHIT1
# human chitotriosidase (hCHIT1), sequence (Q13231 22-466): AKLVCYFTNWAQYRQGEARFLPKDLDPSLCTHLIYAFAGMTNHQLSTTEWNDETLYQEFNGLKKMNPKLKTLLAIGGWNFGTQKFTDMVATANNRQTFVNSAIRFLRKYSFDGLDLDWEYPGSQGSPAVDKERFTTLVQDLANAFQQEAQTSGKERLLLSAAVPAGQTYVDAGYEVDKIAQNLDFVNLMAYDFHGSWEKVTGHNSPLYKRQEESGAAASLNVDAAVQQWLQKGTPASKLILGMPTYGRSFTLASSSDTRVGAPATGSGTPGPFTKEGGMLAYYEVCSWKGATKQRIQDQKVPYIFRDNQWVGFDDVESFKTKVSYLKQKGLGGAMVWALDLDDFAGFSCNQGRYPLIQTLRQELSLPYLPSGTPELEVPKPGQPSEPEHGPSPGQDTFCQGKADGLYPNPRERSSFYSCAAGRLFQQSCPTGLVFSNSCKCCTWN
SMILES,IC50 (murine CHIT1 [mCHIT1]) [µM],"eosinophilia in allergen-challenged mice (allergen-challenged mice; Zhu et al., 2004)",ligand efficiency against AfChiB1 [1] [kcal·mol^−1·atom^−1],IC50 [2] [µM],"allergen or IL-13-induced airway hyperresponsiveness (allergen-challenged mice; Zhu et al., 2004)",neutrophil recruitment in allergic mice (allergen-challenged mice)
CC(=O)N[C@H]1[C@H](O[C@H]2[C@@H](O)[C@@H](NC(C)=O)[C@H](O[C@H]3[C@H](O)[C@H]4N=C(N(C)C)O[C@H]4[C@@H]3CO)O[C@@H]2CO)O[C@H](CO)[C@@H](O)[C@H]1O [allosamidin],~0.05,significantly reduced,,,,
Cn1cnc2c1c(=O)n(CCCn1c(=O)c3c(ncn3C)n(C)c1=O)c(=O)n2C [bisdionin C],,,−0.41,8.3 ± 0.7,,
CNC1=N[C@@H]2[C@@H](O)[C@H](O[C@@H]3O[C@H](CO)[C@@H](O[C@@H]4O[C@H](CO)[C@@H](O)[C@@H](O)[C@H]4NC(C)=O)[C@@H](O)[C@H]3NC(C)=O)[C@@H](CO)[C@@H]2O1 [demethylallosamidin],,significantly reduced,,,reduces,did not result in neutrophil recruitment
